Results published in patent US11214803B2, “Modulators of YAP1 expression” (Ionis Pharmaceuticals, Inc., priority 2019, dated 2022).
Marks after values point to notes of the source that are not given here. Strand notation (5' to 3'): a small letter for the sugar, then the base; units joined by * are phosphorothioate-linked, units joined directly phosphodiester-linked; [ ] holds rarer units or linkages, { } end groups; capitals alone tell only the bases. e = 2'-O-(2-methoxyethyl) (MOE); k = constrained ethyl (cEt); [5mC] = 5-methylcytosine; d = 2'-deoxy (DNA); m = 2'-O-methyl

Tests used:
[1] = tested on: Yap1 mRNA; experiment: Dose-dependent inhibition of human Yap1 in A-431 cells (Example 8, 10,000 cells per well, RTS4814); format: cell-based; settings: free uptake, approximately 48 hours, RTS4814; for Yap1 mRNA, % UTC: A-431 cells, 10,000 cells per well; for IC50: A-431 cells, linear regression on log/linear plot
How it was run: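 Yap1 mRNA, normalized to RIBOGREEN total RNA and expressed as % untreated control, was read with RTS4814 about 48 h after free-uptake oligonucleotide treatment of A-431 cells at 10,000 cells/well. IC50 derived by linear regression of log/linear data.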

[2] = Tolerability in CD-1 mice, plasma chemistry markers (Example 17); format: in vivo; settings: male CD-1 mice, 50 mg/kg s.c. twice a week for four weeks (8 treatments), day 27
Method: (§1) CD-1 mice were treated with modified oligonucleotides selected from studies described above and evaluated for changes in the levels of various plasma chemistry markers.
(§2) Groups of four male CD-1 mice at 4-5 weeks of age (obtained from Charles River) were injected subcutaneously twice a week for four weeks (for a total of 8 treatments) with 50 mg/kg of modified oligonucleotides. One group of male CD-1 mice was injected with PBS. Mice were euthanized on day 27 post start of treatment (24 hrs following the final administration).

[3] = Tolerability in CD-1 mice, body and organ weights (Example 17); format: in vivo; settings: male CD-1 mice, 50 mg/kg s.c. twice a week for four weeks (8 treatments), end of study (day 27)
Method: as §2
(§3) Body weights of CD-1 mice were measured at the end of the study, and the average body weight for each group is presented in the table below. Modified oligonucleotides that caused any changes in organ weights outside the expected range for modified oligonucleotides were excluded from further studies.

[4] = tested on: Yap1 mRNA; experiment: Dose-dependent inhibition of human Yap1 in SNU-449 cells (Example 9, RTS36584); format: cell-based; settings: free uptake; for % UTC (Yap1 mRNA): approximately 48 hours; for IC50: linear regression on a log/linear plot
How it was run: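 Read-out was Yap1 mRNA (primer-probe RTS36584) normalised to total RNA by RIBOGREEN, given as % of untreated cells, with IC50 fitted by linear regression of log/linear data. Oligonucleotides were dosed by free uptake to SNU-449 cells, 10,000/well, for ~48 h.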

[5] = Tolerability in Sprague-Dawley rats, plasma chemistry markers (Example 21); format: in vivo; settings: male Sprague-Dawley rats, 50 mg/kg s.c. weekly for 6 weeks (7 doses), 48 hours after last dose
Method: Sprague-Dawley rats are a multipurpose model used for safety and efficacy evaluations. The rats were treated with Ionis modified oligonucleotides from the studies described in the Examples above and evaluated for changes in the levels of various plasma chemistry markers.

[6] = Tolerability in Sprague-Dawley rats, body and organ weights (Example 21); format: in vivo; settings: male Sprague-Dawley rats, 50 mg/kg s.c. weekly for 6 weeks (7 doses); for Kidney weight / Liver weight / Spleen weight: end of study; for body weight: terminal, prior to necropsy
Method: Terminal body weight was measured prior to necropsy. Ionis oligonucleotides that caused any changes in organ weights outside the expected range for modified oligonucleotides were excluded from further studies.

[7] = Tolerability in Sprague-Dawley rats, kidney function, urine total protein to creatinine ratio (Example 21); settings: male Sprague-Dawley rats, 50 mg/kg s.c. weekly for 6 weeks (7 doses)
Method: Male Sprague-Dawley rats were maintained on a 12-hour light/dark cycle and fed ad libitum with Purina normal rat chow. Groups of 4 Sprague-Dawley rats each were weekly injected subcutaneously with 50 mg/kg of Ionis oligonucleotide for 6 weeks (total 7 doses). Forty-eight hours after the last dose, the rats were euthanized; and organs, urine and plasma were harvested for further analysis.
To evaluate the effect of Ionis oligonucleotides on kidney function, urinary levels of total protein and creatinine were measured using an automated clinical chemistry analyzer (Hitachi Olympus AU400c, Melville, N.Y.).

[8] = tested on: Yap1 mRNA; experiment: Inhibition of human Yap1 mRNA in SNU449 hepatocellular carcinoma xenograft tumors (Example 26); format: in vivo; settings: SNU449 xenografts in NSG mice, 50 mg/kg twice weekly for five days, relative to PBS treated animals
Method: A SNU449 hepatocellular carcinoma xenograft tumor model was used to evaluate activity of modified oligonucleotides targeted to human Yap1. Ten million SNU449 cells in 30% matrigel were implanted subcutaneously into the flanks of female NOD Cg-Prkdcscid ll2rgtm1Wjl/SzJ (NSG) mice (from Jackson Laboratory) at 4-6 weeks of age. When tumors reached an average volume of 100 mm^3, approximately two weeks post-implantation, groups of four mice each were administered at 50 mg/kg twice weekly with modified oligonucleotides for five days. Tumors were collected and tested for Yap1 mRNA knockdown by RT-qPCR. Yap1 mRNA levels were measured as previously described using the Human Yap1 primer-probe set RTS4814. Yap1 mRNA levels were normalized to actin-beta content, as measured by primer probe set RTS5002. Results are presented in the tables below as percent control of the amount of Yap1 mRNA relative to PBS treated animals (% control).

[9] = Tolerability in CD-1 mice, plasma chemistry markers (Example 16); format: in vivo; settings: male CD-1 mice, 50 mg/kg s.c. twice a week for four weeks (8 treatments), day 27
Method: as §1, §2

[10] = Tolerability in CD-1 mice, body and organ weights (Example 16); format: in vivo; settings: male CD-1 mice, 50 mg/kg s.c. twice a week for four weeks (8 treatments), end of study (day 27)
Method: as §2, §3

| Substance | % UTC (Yap1 mRNA) ([4]; 31.3 nM) | % UTC (Yap1 mRNA) ([4]; 125.0 nM) | % UTC (Yap1 mRNA) ([4]; 500.0 nM) | % UTC (Yap1 mRNA) ([4]; 2000.00 nM) | IC50 [4] | ALT [5] | AST [5] | BUN [5] | TBIL [5] | Kidney weight [6] | Liver weight [6] | Spleen weight [6] | body weight [6] | URINE P/C ratio (total protein to creatinine ratio) [7] | further results |
| --- | --- | --- | --- | --- | --- | --- | --- | --- | --- | --- | --- | --- | --- | --- | --- |
| 1075395 (antisense kA*kT*kG*dA*dA*dT*dA*dA*dG*dT*dA*dT*dG*k[5mC]*k[5mC]*kA) [compound 1075395] | – | – | – | – | – | – | – | – | – | – | – | – | – | – | Yap1 mRNA, % UTC ([1]; 31.3 nM): 60 % UTC; Yap1 mRNA, % UTC ([1]; 125.0 nM): 18 % UTC; Yap1 mRNA, % UTC ([1]; 500.0 nM): 7 % UTC; Yap1 mRNA, % UTC ([1]; 2000.00 nM): 5 % UTC; IC50 [1]: < 20 nM; ALT [2]: 38 U/L; AST [2]: 51 U/L; BUN [2]: 21 mg/dL; TBIL [2]: 0.18 mg/dL; Kidney weight [3]: 0.49 g; Liver weight [3]: 2.30 g; Spleen weight [3]: 0.20 g; body weight [3]: 34 g |
| 1198312 (kG*k[5mC]*kA*d[5mC]*dT*dT*dT*dT*dA*d[5mC]*dA*dT*kT*eA*kG*eG) [compound 1198312] | 76 % UTC | 34 % UTC | 10 % UTC | 5 % UTC | 100 nM | 132 U/L | 108 U/L | 25 mg/dL | 0.14 mg/dL | 4.26 g | 19 g | 2.19 g | 365 g | 60 | – |
| 1097037 (kA*kG*kA*dT*dT*dT*dA*dG*dG*dA*dT*dG*d[5mC]*kA*kT*kG; antisense) [compound 1097037] | – | – | – | – | – | – | – | – | – | – | – | – | – | – | ALT [2]: 73 U/L; AST [2]: 97 U/L; BUN [2]: 23 mg/dL; TBIL [2]: 0.12 mg/dL; Kidney weight [3]: 0.52 g; Liver weight [3]: 2.33 g; Spleen weight [3]: 0.21 g; body weight [3]: 33 g |
| 1198615 (kT*kT*kA*dA*dA*dG*dT*dG*dT*dA*dT*dG*kT*k[5mC]*kA*eG) [compound 1198615] | 52 % UTC | 23 % UTC | 5 % UTC | 2 % UTC | < 30 nM | 38 U/L | 71 U/L | 21 mg/dL | 0.13 mg/dL | 3.01 g | 16 g | 2.35 g | 369 g | 8 | Yap1 mRNA in tumors, % control [8]: 62 % control |
| 1198873 (kA*kG*dT*dG*dT*dA*dT*dG*dT*d[5mC]*dA*kG*eA*kA*eG*kA; antisense) [compound 1198873] | 38 % UTC | 12 % UTC | 2 % UTC | 0 % UTC | < 30 nM | 78* U/L | 79* U/L | 24* mg/dL | 0.17* mg/dL | 3.65 g | 19 g | 2.42 g | 408 g | 9 | – |
| 1200857 (kA*kG*kT*dG*dT*mA*dT*dG*dT*d[5mC]*dA*dG*dA*kA*kG*kA; antisense) [compound 1200857] | 66 % UTC | 30 % UTC | 8 % UTC | 2 % UTC | 100 nM | 183 U/L | 318 U/L | 56 mg/dL | 4.93 mg/dL | 6.97 g | 19 g | 2.55 g | 307 g | 52 | – |
| 1198874 (kA*kA*dG*dT*dG*dT*dA*dT*dG*dT*d[5mC]*kA*eG*kA*eA*kG) [compound 1198874] | 36 % UTC | 8 % UTC | 1 % UTC | 0 % UTC | < 30 nM | 73 U/L | 102 U/L | 22 mg/dL | 0.16 mg/dL | 3.67 g | 20 g | 2.61 g | 372 g | 9 | – |
| 1076186 (kA*kT*kT*dT*dA*dG*dG*dA*dT*dG*d[5mC]*dA*dT*kG*kG*kT) [compound 1076186] | – | – | – | – | – | – | – | – | – | – | – | – | – | – | ALT [9]: 74 U/L; AST [9]: 97 U/L; Albumin [9]: 2.5 g/dL; BUN [9]: 23 mg/dL; TBIL [9]: 0.16 mg/dL; Kidney weight [10]: 0.58 g; Liver weight [10]: 2.42 g; Spleen weight [10]: 0.16 g; body weight [10]: 37 g |
| 1074756 (kG*k[5mC]*kA*d[5mC]*dT*dT*dT*dT*dA*d[5mC]*dA*dT*dT*kA*kG*kG) [compound 1074756] | 42 % UTC | 20 % UTC | 6 % UTC | 3 % UTC | < 30 nM | 114* U/L | 79* U/L | 0.57* mg/dL | 0.10* mg/dL | 4.71* g | 21* g | 1.99* g | 349 g | 167 | Yap1 mRNA, % UTC ([1]; 31.3 nM): 22 % UTC; Yap1 mRNA, % UTC ([1]; 125.0 nM): 7 % UTC; Yap1 mRNA, % UTC ([1]; 500.0 nM): 4 % UTC; Yap1 mRNA, % UTC ([1]; 2000.00 nM): 4 % UTC; IC50 [1]: < 20 nM |
| 1198612 (kA*kA*kG*dT*dG*dT*dA*dT*dG*dT*d[5mC]*dA*kG*kA*kA*eG) [compound 1198612] | 44 % UTC | 12 % UTC | 2 % UTC | 0 % UTC | < 30 nM | 74 U/L | 91 U/L | 31 mg/dL | 0.12 mg/dL | 3.60 g | 17 g | 2.33 g | 345 g | 11 | – |
